Assay results: patent publication US11161830B2, “4-pyridone compound or salt thereof, and pharmaceutical composition and formulation including same” (priority 2017, dated 2021)
Several values for one entry are separate records, joined by “and”; a condition that tells them apart may be missing. Identical values can stand only once.

System: HBV genotype C
Assay: Test Example 3-2: in vivo efficacy study in PXB mouse (chimeric mouse with human hepatocytes), first and second study
Design: species or system hepatitis B virus
Conditions: first study, individual mice
Procedure: An in vivo efficacy study with a PXB mouse (a chimeric mouse with human hepatocytes) was carried out in PhenixBio Co., Ltd. 19-Week-or-more-old male mice having body weights of 10.5 g or more after the elapse of 13 weeks or more from the infection with HBV genotype C were allocated into the respective groups and used. The studies were carried out twice, and a 21-day administration withdrawal period was provided between the first study and the second study.
The first administration day in the first study was taken as day 0, and the compound of Example 6-5 was orally administered at 1 mg/kg, 3 mg/kg, 10 mg/kg, and 30 mg/kg twice a day, or 0.5% methylcellulose (vehicle) was orally administered once a day for 14 days. Before administration on day 0, day 3, Day 7, and day 10, and on day 14, the blood was collected from the orbital venous plexus under anesthesia with isoflurane.
The first administration day in the second study was taken as day 35, and the compounds of Examples 19-2 and 20-2 were each orally administered at 3 mg/kg twice a day, or 0.5% methylcellulose (vehicle) was orally administered once a day for 14 days. Before administration on day 35, day 38, day 42, and day 45, the blood was collected from the orbital venous plexus under anesthesia with isoflurane. On day 49, the blood was collected from the heart under anesthesia with isoflurane.
The serum was separated from the collected blood and purified with a QIAamp (registered trademark) DNA Blood Mini Kit (manufactured by QIAGEN). The amount of HBV-DNA in the obtained solution was absolutely quantified by a real-time PCR method. In addition, the amount of HBsAg in the serum was absolutely quantified by chemiluminescent enzyme immunoassay using Lumipulse (registered trademark) HBsAg-HQ (manufactured by Fujirebio Inc.).

[1] = orally 1 mg/kg twice a day, Day 0 (before administration), 1 mg/kg
[2] = orally 1 mg/kg twice a day, Day 3, 1 mg/kg
[3] = orally 1 mg/kg twice a day, Day 7, 1 mg/kg
[4] = orally 1 mg/kg twice a day, Day 14, 1 mg/kg
[5] = orally 3 mg/kg twice a day, Day 0 (before administration), 3 mg/kg
[6] = orally 3 mg/kg twice a day, Day 3, 3 mg/kg
[7] = orally 3 mg/kg twice a day, Day 7, 3 mg/kg
[8] = orally 3 mg/kg twice a day, Day 10, 3 mg/kg
[9] = orally 3 mg/kg twice a day, Day 14, 3 mg/kg
[10] = orally 10 mg/kg twice a day, Day 0 (before administration), 10 mg/kg
[11] = orally 10 mg/kg twice a day, Day 3, 10 mg/kg
[12] = orally 10 mg/kg twice a day, Day 7, 10 mg/kg
[13] = orally 10 mg/kg twice a day, Day 10, 10 mg/kg
[14] = orally 10 mg/kg twice a day, Day 14, 10 mg/kg
[15] = orally 30 mg/kg twice a day, Day 0 (before administration), 30 mg/kg
[16] = orally 30 mg/kg twice a day, Day 3, 30 mg/kg
[17] = orally 30 mg/kg twice a day, Day 7, 30 mg/kg
[18] = orally 30 mg/kg twice a day, Day 10, 30 mg/kg
[19] = orally 30 mg/kg twice a day, Day 14, 30 mg/kg

## COCCN1CCN(c2nc3ccc(-n4cc(C(=O)O)c(=O)cc4-c4ccc(N5CCCC5)c(Cl)c4)cc3s2)CC1 [Example 6-5, 6-(3-chloro-4-(pyrrolidin-1-yl)phenyl)-1-(2-(4-(2-methoxyethyl)piperazine-1-yl)benzo[d]thiazol-6-yl)-4-oxo-1,4-dihydropyridine-3-carboxylic acid]
[1]
  HBV-DNA in blood: 8.4E+08 copies/mL and 1.1E+09 copies/mL
  HBsAg in serum: 1,910 IU/mL and 2,498 IU/mL
[2]
  HBV-DNA in blood: 1.6E+09 copies/mL and 7.7E+08 copies/mL
  HBsAg in serum: 2,288 IU/mL and 2,694 IU/mL
[3]
  HBV-DNA in blood: 1.4E+09 copies/mL and 1.1E+09 copies/mL
  HBsAg in serum: 2,444 IU/mL and 2,663 IU/mL
Orally 1 mg/kg twice a day, Day 10
  HBV-DNA in blood: 1.2E+09 copies/mL
Orally 1 mg/kg twice a day, Day 10, 1 mg/kg
  HBsAg in serum: 1,947 IU/mL and 2,431 IU/mL
[4]
  HBV-DNA in blood: 6.8E+08 copies/mL and 6.4E+08 copies/mL
  HBsAg in serum: 1,777 IU/mL and 2,344 IU/mL
[5]
  HBV-DNA in blood: 1.8E+09 copies/mL and 9.8E+08 copies/mL
  HBsAg in serum: 2,722 IU/mL and 2,314 IU/mL
[6]
  HBV-DNA in blood: 5.7E+08 copies/mL and 5.6E+08 copies/mL
  HBsAg in serum: 972 IU/mL and 1,059 IU/mL
[7]
  HBV-DNA in blood: 4.9E+08 copies/mL and 4.0E+08 copies/mL
  HBsAg in serum: 859 IU/mL and 876 IU/mL
[8]
  HBV-DNA in blood: 5.7E+08 copies/mL and 6.2E+08 copies/mL
  HBsAg in serum: 959 IU/mL and 1,025 IU/mL
[9]
  HBV-DNA in blood: 6.1E+08 copies/mL and 5.2E+08 copies/mL
  HBsAg in serum: 1,012 IU/mL and 837 IU/mL
[10]
  HBV-DNA in blood: 1.1E+09 copies/mL and 1.2E+09 copies/mL
  HBsAg in serum: 2,500 IU/mL and 2,409 IU/mL
[11]
  HBV-DNA in blood: 8.0E+08 copies/mL and 4.5E+08 copies/mL
  HBsAg in serum: 595 IU/mL and 421 IU/mL
[12]
  HBV-DNA in blood: 3.3E+08 copies/mL and 4.0E+08 copies/mL
  HBsAg in serum: 445 IU/mL and 366 IU/mL
[13]
  HBV-DNA in blood: 7.3E+08 copies/mL and 3.9E+08 copies/mL
  HBsAg in serum: 394 IU/mL and 329 IU/mL
[14]
  HBV-DNA in blood: 4.9E+08 copies/mL and 3.6E+08 copies/mL
  HBsAg in serum: 368 IU/mL and 398 IU/mL
[15]
  HBV-DNA in blood: 1.6E+09 copies/mL and 1.2E+09 copies/mL
  HBsAg in serum: 2,291 IU/mL and 2,328 IU/mL
[16]
  HBV-DNA in blood: 8.3E+08 copies/mL and 4.4E+08 copies/mL
  HBsAg in serum: 673 IU/mL and 592 IU/mL
[17]
  HBV-DNA in blood: 7.5E+08 copies/mL and 3.7E+08 copies/mL
  HBsAg in serum: 458 IU/mL and 370 IU/mL
[18]
  HBV-DNA in blood: 8.0E+08 copies/mL and 4.9E+08 copies/mL
  HBsAg in serum: 359 IU/mL and 392 IU/mL
[19]
  HBV-DNA in blood: 6.1E+08 copies/mL and 2.6E+08 copies/mL
  HBsAg in serum: 408 IU/mL and 268 IU/mL
